Measured values reported in ChEMBL document CHEMBL1122154, “Serotonin receptor affinity of cathinone and related analogues” (J Med Chem, 1982).

molecular target: Serotonin (5-HT) receptor; assay: Affinity for 5-hydroxytryptamine receptor was determined using male Dawley rat fundus preparation; assay type: protein assay

SMILES	pA2
NCC1=CCCc2ccccc21	5.81
NC1CCc2ccccc2C1=O (stereo not given)	6.04
CC(N)C(=O)c1ccc(O)cc1 (racemic) [HYDROXYLATED COMPLETELY DELAKYLATED DIETHYLPROPION]	5.3
NCC1=CCOc2ccccc21	4.94
COc1ccc2c(c1)C(CN)=CCO2	6.12
COc1ccc2c(c1)C(CN)CCO2 (stereo not given)	5.94
CC(N)C(=O)c1ccccc1 (stereo not given) [DEALKYLATED DIETHYLPROPION]	5.86
NC1CCc2ccccc2C1 (stereo not given)	5.61
NCC(N)c1ccccc1 (racemic)	4.9
COc1ccc(C(=O)C(C)N)cc1OC (racemic)	6.14
